Test [1] concerns MMTV driven gene expression. Put plainly: Glucocorticoid mediated transactivation of MMTV driven gene expression (luciferase reporter). In kind it is cell-based, Human. Particulars: A549 or MG63 cells, 6 hr incubation. The text has this: Glucocorticoid Mediated Transactivation of MMTV Driven Gene Expression
Human A549 lung epithelial cells or human MG63 osteosarcoma were engineered to contain a renialla luciferase gene under the control of the distal region of the LTR from the mouse mammary tumour virus as previously described (Austin, R. H., Maschera, B., Walker, A., Fairbairn, L., Meldrum, E., Farrow, S. and Uings, I. J. Mometasone furoate is a less specific glucocorticoid than fluticasone propionate. European Respiratory Journal 2002 20 1386-1392).
Compounds were solvated and diluted in DMSO, and transferred directly into assay plates such that the final concentration of DMSO was 0.7%. Following the addition of cells (40K per well), plates were incubated for 6 hr. Luciferase activity was determined using the Firelight kit (Packard, Pangbourne, UK).
For orientation: In a reporter assay the amount or activity of a reporter protein is the signal.

Another test relates to NFkB activity. In words: Glucocorticoid mediated transrepression of NFkB activity (A549 ELAM promoter alkaline phosphatase reporter, TNFα stimulated). The test is classed as cell-based. The settings on record: A549 cells, 3 ng/ml human recombinant TNFα, 16 hours; read-out: pIC50 NFkB assay (converted). The text has this:
Glucocorticoid mediated Transrepression of NFkB activity.
Human A549 lung epithelial cells were engineered to contain a secreted placental alkaline phosphatase gene under the control of the distal region of the NFkB dependent ELAM promoter as previously described in Ray, K. P., Farrow, S., Daly, M., Talabot, F. and Searle, N. “Induction of the E-selectin promoter by interleukin 1 and tumour necrosis factor alpha, and inhibition by glucocorticoids” Biochemical Journal. 1997 328 707-15.
Compounds were solvated and diluted in DMSO, and transferred directly into assay plates such that the final concentration of DMSO was 0.7%. Following the addition of cells (40K per well), plates were incubated for 1 hr prior to the addition of 3 ng/ml human recombinant TNFα. Following continued incubation for 16 hours, alkaline phosphatase activity was determined by measuring the change in optical density at 405 nm with time following the addition of 0.7 volumes of assay buffer (1 mg/ml p-nitrophenylphosphate dissolved in 1 M diethanolamine, 0.28M NaCl, 0.5 mM MgCl2).

In another test the target is T1, glucocorticoid receptor (Homo sapiens, UniProt P04150).
T1 construct: purchased Pan Vera (Madison, Wis., USA)
T1 sequence (P04150 1-777): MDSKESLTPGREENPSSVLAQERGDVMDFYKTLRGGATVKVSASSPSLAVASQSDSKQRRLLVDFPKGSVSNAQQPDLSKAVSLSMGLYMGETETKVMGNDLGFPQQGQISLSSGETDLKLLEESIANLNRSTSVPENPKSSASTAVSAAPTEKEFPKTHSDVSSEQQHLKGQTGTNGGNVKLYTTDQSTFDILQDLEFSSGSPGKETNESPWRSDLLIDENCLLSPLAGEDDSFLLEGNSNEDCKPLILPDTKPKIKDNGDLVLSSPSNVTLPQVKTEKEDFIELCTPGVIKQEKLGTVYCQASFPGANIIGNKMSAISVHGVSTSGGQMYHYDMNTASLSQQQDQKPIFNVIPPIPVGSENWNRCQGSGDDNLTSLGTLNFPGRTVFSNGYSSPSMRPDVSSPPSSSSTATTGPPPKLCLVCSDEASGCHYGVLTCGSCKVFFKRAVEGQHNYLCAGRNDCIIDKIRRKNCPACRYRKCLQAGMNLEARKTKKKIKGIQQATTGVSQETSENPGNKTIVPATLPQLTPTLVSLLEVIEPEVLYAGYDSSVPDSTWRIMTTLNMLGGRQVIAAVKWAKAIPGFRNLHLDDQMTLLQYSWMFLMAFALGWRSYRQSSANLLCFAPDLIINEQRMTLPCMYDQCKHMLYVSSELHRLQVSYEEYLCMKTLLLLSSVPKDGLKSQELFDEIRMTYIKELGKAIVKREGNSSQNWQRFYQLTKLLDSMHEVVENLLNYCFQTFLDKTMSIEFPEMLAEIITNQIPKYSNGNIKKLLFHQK
Put plainly: Glucocorticoid receptor binding assay (fluorescence polarisation competition). The settings on record: displacement of fluorescent glucocorticoid, 22° C., 2 hours; read-out: pIC50 glucocorticoid receptor binding assay (converted). The method, then: Glucocorticoid Receptor Binding Assay
The ability of compounds to bind to the glucocorticoid receptor was determined by assessing their ability to compete with fluorescent-labelled glucocortioid using a kit supplied by Pan Vera (Madison, Wis., USA) or using in house reagents. Compounds were solvated and diluted in DMSO, and transferred directly into assay plates. Fluorescent glucocorticoid and partially purified glucocorticoid receptor with a stabilisation peptide were added to the plates and incubated at 22° C. for 2 hours in the dark. Binding of the compound was assessed by analysing the displacement of fluorescent ligand by measuring the decrease in fluorescence polarisation signal from the mixture.

The results in this text go back to patent publication US7902224B2, “Tetrahydro-naphthalene derivatives as glucocorticoid receptor modulators” (Glaxo Group Limited, priority 2004, dated 2011).

Turning to `CCC1(CC(O)(CNc2cccc3ncccc23)C(F)(F)F)CCCc2ccccc21` (stereo not drawn) [Example 6-D1, 3-(1-Ethyl-1,2,3,4-tetrahydro-1-naphthalenyl)-1,1,1-trifluoro-2-[(5-guinolinylamino)methyl]-2-propanol], the “efficacy in the MMTV transactivation assay compared to the NFkB assay” value in test [1] was “reduced efficacy”. The IC50 with NFkB activity is < 31.6 nM; at glucocorticoid receptor, < 100 nM.
